Laboratory results from patent publication US20240374487A1, “ANTI-AGING AGENT, COSMETIC PRODUCT, WET TOWEL, AND HYGIENE PRODUCT” (VB JAPAN TECHNOLOGY CO., LTD., priority 2021, published 2024).

Legend:
FEEL-1 = FEEL-1 mRNA level by qRT-PCR in AGE-treated fibroblasts; format: cell-based, human; conditions: co-existence with AGE 100 μg/mL, 4 hours, compared with AGE single stimulation group
Description: (§1) Normal human dermal fibroblasts (NHDF), juvenile foreskin (C-12300, PromoCell) were cultured in a dedicated medium, Fibroblast Growth Medium (C-23010, PromoCell) at 37° C. in a 5% CO2 incubator.
(§2) First, as a co-existence group of VB and AGE, normal human dermal fibroblasts were treated with AGE (100 μg/mL), and the above VB2 (concentration after dilution: 115 μg/ml) and VB3 (concentration after dilution: 1000 μg/mL) diluted to an accurate 1/1000 amount were each added and retained at 37° C. for 4 hours. […]
(§3) Then, total RNA was extracted from the cells using Trizol reagent (Ambion), and mRNA levels of AGE receptor (FEEL-1, FEEL-2, CD-36, AGE-R1, AGE-R2, AGE-R3 and RAGE) and heat shock protein (Hsp104, gp96, Hsp90, Hsp70, Hsp60, and Hsp32) were measured by qRT-PCR (one-step quantitative reverse transcription-polymerase chain reaction) method. […]
(§4) The qRT-PCR method used for the measurement of AGE receptor, heat shock protein, aquaporin, hyaluronic acid, and Elastin will be described. In the qRT-PCR method, 500 ng of the obtained total RNA was used as a template for PCR, and one step RT-PCR capable of performing CDNA synthesis by a reverse transcription reaction (Reverse Transcriptase; RT reaction) and quantitative PCR in one test tube was performed using Luna Universal One-Step qRT-PCR Kit. […]

SOD = SOD amount against hydrogen peroxide (SOD Assay Kit); format: cell-based, human; conditions: added before and after 0.2 mM hydrogen peroxide, 1-300 μg/mL (H2O2 only 56% of Control)
Description: Superoxide (SOD) was measured using SOD Assay Kit (Cayman Chemical, Ann arbor, MI, USA). Cells that had been subjected to various treatments were incubated for 24 hours, and then a Lysis buffer was added, homogenized, and centrifuged. Then, 10 μL of each sample was mixed with 200 μL of xanthine oxidase at room temperature. After 30 minutes, the absorbance at 450 nm was measured.
(§5) Normal human dermal fibroblasts were cultured for 2 hours in a culture solution to which 0.2 mM hydrogen peroxide was added, then washed off with PBS, and replaced with a normal medium to continue the cultivation. VB2 and VB3 were each added at any timing before or after hydrogen peroxide was added, and co-cultured for 4 hours. Thereafter, the cells or the culture solution were recovered.
According to the procedure described in “Measurement of Cell Viability” above, normal human dermal fibroblasts were treated and cultured (co-culture), and cells or the culture solution was recovered. The concentrations of VB2 and VB3 used and the notation of the samples in FIGS. 6 and 7, which are graphs showing the results, are also similar to the above “Measurement of Cell Viability”. […]

[1] = tested on: normal human dermal fibroblasts; assay: Cell viability under hydrogen peroxide oxidative stress (Cell counting-8 kit); format: cell-based; conditions: for cell viability, trend: 1-300 μg/mL
Description: as §1, §5
In FIG. 5 which is a graph showing the results, a sample obtained by adding VB2 or VB3 after adding hydrogen peroxide was denoted as “H2O2-VB2” and “H2O2-VB3”, respectively, and a sample obtained by adding hydrogen peroxide after adding VB2 or VB3 was denoted as “VB2-H2O2” and “VB3-H2O2”, respectively.
Here, VB2 and VB3 were added at concentrations of 1 μg/mL, 10 μg/mL, 100 μg/mL, and 300 μg/mL, respectively.
The normal human dermal fibroblasts to which neither hydrogen peroxide nor VB2 nor VB3 was added were treated in the same manner as described above, and measured as Control. In addition, a sample to which VB2 or VB3 was not added (in FIG. 5, it is denoted as “H2O2”) was also treated in the same manner as described above, and measurement was performed.
The number of surviving cells in normal human dermal fibroblasts was measured using Cell counting −8 kit (DOJINDO: , Japan).

hyaluronic acid = assay: Hyaluronic acid secreted into culture supernatant (ELISA); format: cell-based, human
Description: as §5
(§6) According to the procedure described in “Measurement of Cell Viability” above, normal human dermal fibroblasts were treated and cultured (co-culture), and cells or the culture solution was recovered. The concentrations of VB2 and VB3 used and the notation of the samples in FIGS. 10 and 11, which are graphs showing the results, are also similar to the above “Measurement of Cell Viability”.
(§7) The production amounts of hyaluronic acid and Elastin were measured by an ELISA method. The results of measuring the amount of hyaluronic acid secreted from normal human dermal fibroblasts into the culture supernatant by the ELISA method are shown in FIG. 10, and the results of measuring the amount of intracellular Elastin production by the ELISA method are shown in FIG. 11.

AQP-1 = AQP-1 mRNA level under oxidative stress (qRT-PCR); format: cell-based, human
Description: as §5
(§8) According to the procedure described in “Measurement of Cell Viability” above, normal human dermal fibroblasts were treated and cultured (co-culture), and cells or the culture solution was recovered. The notation of the sample in FIGS. 8 and 9, which are graphs showing the results, is also the same as in the “Measurement of Cell Viability” described above.
(§9) The measurement of aquaporin was performed for AQP-1 and AQP-3 by a qRT-PCR method, and the measurement result was obtained by a ΔΔCt method. […] The qRT-PCR method is s specifically described in “qRT-PCR method” described later.
(§10) The qRT-PCR method used for the measurement of AGE receptor, heat shock protein, aquaporin, hyaluronic acid, and Elastin will be described. In the qRT-PCR method, 500 ng of the obtained total RNA was used as a template for PCR, and one step RT-PCR capable of performing CDNA synthesis by a reverse transcription reaction (Reverse Transcriptase; RT reaction) and quantitative PCR in one test tube was performed using Luna Universal One-Step qRT-PCR Kit.
(§11) As a PCR device, Thermal Cycler Dice Real Time System II manufactured by Takara was used. As one reaction system, 10 μL of Luna Universal One-Step Reaction Mix (2×), 1 μL of Luna WarmStart RT Enzyme Mix (20×), 0.8 μL of Forward primer (10 μM), 0.8 μL of Reverse primer, and Total RNA as a template for the PCR were used, and the total amount was adjusted to 20 μL in Nuclease-free Water.
(§12) The reaction was performed under the conditions of 1 cycle of 30 seconds at 95° C., and further cycles of 5 seconds at 95° C. and 30 seconds at 60° C. for 50 cycles. A variation in mRNA expression by 4 times or more (2 cycles as PCR reaction) was determined as a significant difference.

AQP-3 = AQP-3 mRNA level under oxidative stress (qRT-PCR); format: cell-based, human
Description: as §5, §8, §9, §10, §11, §12

[2] = tested on: heat shock protein (Hsp104, gp96, Hsp90, Hsp70, Hsp60, and Hsp32); assay: mRNA levels of heat shock proteins by qRT-PCR in fibroblasts; format: cell-based, human; conditions: 4 hours
Description: as §1
First, as a co-existence group of VB and AGE, normal human dermal fibroblasts were treated with AGE (100 μg/mL), and the above VB2 (concentration after dilution: 115 μg/ml) and VB3 (concentration after dilution: 1000 μg/mL) diluted to an accurate 1/1000 amount were each added and retained at 37° C. for 4 hours.
In addition, as the VB single stimulation group, normal human dermal fibroblasts were not treated with AGE, and the above VB2 and VB3 diluted to an accurate 1/1000 amount were each added and held at 37° C. for 4 hours. Furthermore, as the AGE single stimulation group, normal human dermal fibroblasts were treated with AGE and kept at 37° C. for 4 hours without addition of VB2 or VB3. In addition, as an untreated group, normal human dermal fibroblasts were not treated with AGE, and were kept at 37° C. for 4 hours without adding VB2 or VB3.
Then, total RNA was extracted from the cells using Trizol reagent (Ambion), and mRNA levels of AGE receptor (FEEL-1, FEEL-2, CD-36, AGE-R1, AGE-R2, AGE-R3 and RAGE) and heat shock protein (Hsp104, gp96, Hsp90, Hsp70, Hsp60, and Hsp32) were measured by qRT-PCR (one-step quantitative reverse transcription-polymerase chain reaction) method.
The measurement results for AGE receptor are shown in FIG. 1, and the measurement results for heat shock protein are shown in FIG. 2. In FIG. 1 and FIG. 2, for the co-existence group of AGE and VB, samples to which VB2 and VB3 were added are indicated as VB2(+)AGE and VB3(+)AGE, respectively, and these values were shown in comparison with the AGE single stimulation group. In addition, for the VB single stimulation group, samples to which VB2 and VB3 were added were indicated as VB2 alone and VB3 alone, respectively, and these values were shown in comparison with the untreated group.
as §10
As a PCR device, Thermal Cycler Dice Real Time System II manufactured by Takara was used. […]
as §12

FEEL-2 = FEEL-2 mRNA level by qRT-PCR in AGE-treated fibroblasts; format: cell-based, human; conditions: co-existence with AGE 100 μg/mL, 4 hours, compared with AGE single stimulation group
Description: as §1, §2, §3, §4

intracellular ROS [3] = assay: Intracellular ROS against AGE (DCF-DA fluorescence); format: cell-based, human; conditions: AGE 100 μg/mL, 4 hours, FIG. 3
Description: as §1
Normal human dermal fibroblasts were treated with AGE (100 μg/mL) and maintained at 37° C. for 4 hours with the addition of VB2 and VB3, respectively. Here, VB2 and VB3 were added at concentrations of 1 μg/mL, 10 μg/mL, 100 μg/mL, and 300 μg/mL, respectively. In FIGS. 3 and 4, which are graphs showing the results, those to which VB2was added were denoted as “VB2-AGE”, and those to which VB3 was added were denoted as “VB3-AGE”.
As Control, measurement was also performed on normal human dermal fibroblasts which were not treated with AGE and were held at 37° C. for 4 hours without addition of VB2 or VB3, and as an AGE single stimulation group, measurement was also performed on normal human dermal fibroblasts which were treated with AGE (100 μg/mL) and were held at 37° C. for 4 hours without addition of VB2 or VB3 (in FIGS. 3 and 4, it is denoted as “AGE”.).
Measurement of intracellular ROS was performed using fluorescence using dichlorofluorescin diacetate (DCF-DA; Invitrogen, Carlsbad, CA, USA). […] The intracellular ROS level was measured at an excitation wavelength of 525 nm using fluorescence intensity using the micro plate reader (SYNERGY/HT, BioTek, Japan).

intracellular ROS [4] = assay: Intracellular ROS production against hydrogen peroxide (DCF-DA); format: cell-based, human
Description: Measurement of intracellular ROS was performed using fluorescence using dichlorofluorescin diacetate (DCF-DA; Invitrogen, Carlsbad, CA, USA). Specifically, cells were washed with PBS, and then incubated with 10 μM DCF-DA at 37° C. for 20 minutes. The intracellular ROS level was measured at an excitation wavelength of 525 nm using fluorescence intensity using the micro plate reader (SYNERGY/HT, BioTek, Japan).
as §5
According to the procedure described in “Measurement of Cell Viability” above, normal human dermal fibroblasts were treated and cultured (co-culture), and cells or the culture solution was recovered. The concentrations of VB2 and VB3 used and the notation of the samples in FIGS. 6 and 7, which are graphs showing the results, are also similar to the above “Measurement of Cell Viability”.
The measurement of intracellular ROS and the measurement of superoxide (SOD) were performed by the same methods as the methods described in “Measurement of Intracellular Reactive Oxygen (ROS) Production and Superoxide (SOD) against AGE” above, respectively.
FIGS. 6 and 7 show the results of each sample when Control is 100%.

[5] = tested on: AGE receptor (FEEL-1, FEEL-2, CD-36, AGE-R1, AGE-R2, AGE-R3 and RAGE); assay: mRNA levels of AGE receptors by qRT-PCR in normal human dermal fibroblasts; format: cell-based; conditions: VB alone, no AGE, 37° C. 4 hours, compared with untreated group
Description: as §1, §2, §3, §4

RAGE = RAGE mRNA level by qRT-PCR in AGE-treated fibroblasts; format: cell-based, human; conditions: co-existence with AGE 100 μg/mL, 4 hours, compared with AGE single stimulation group
Description: as §1, §2, §3, §4

Elastin = assay: Intracellular Elastin production (ELISA); format: cell-based, human
Description: as §5, §6, §7

[6] = added in advance before oxidative stress, compared with addition after
[7] = added before or after 0.2 mM hydrogen peroxide
[8] = added in advance before applying oxidative stress

Substance: K11H[(VO)3(SbW9O33)2] [VB2]
- mRNA level of FEEL-1 (FEEL-1): significantly increased
- SOD amount (SOD): tended to be recovered in a concentration-dependent manner
- maximum cell viability ([1]; added after 0.2 mM hydrogen peroxide, 300 μg/mL, % of Control (H2O2 only 59%)): 76%
- cell viability, trend ([1]; added after 0.2 mM hydrogen peroxide): increased in a concentration-dependent manner
- cell viability, trend ([1]; added in advance before 0.2 mM hydrogen peroxide): significant increase in a concentration-dependent manner
- amount of hyaluronic acid (hyaluronic acid; 0.2 mM hydrogen peroxide oxidative stress, culture supernatant): tended to be recovered
- hyaluronic acid repair ability, addition before vs after oxidative stress (hyaluronic acid; [6]): tended to have a stronger repair ability
- mRNA level of AQP-1 (AQP-1; [7]): increased
- AQP-1 mRNA repair ability, addition before vs after oxidative stress (AQP-1; [6]): tended to have a stronger repair ability
- mRNA level of AQP-3 (AQP-3; [7]): increased
- AQP-3 mRNA repair ability, addition before vs after oxidative stress (AQP-3; [6]): tended to have a stronger repair ability
- mRNA expression of Hsp ([2]; VB alone, no AGE, compared with untreated group): did not affect
- mRNA levels of all Hsps other Hsp 90 among the examined Hsps ([2]; co-existence with AGE 100 μg/mL, compared with AGE single stimulation group): significantly increased
- mRNA level of FEEL-2 (FEEL-2): significantly increased
- intracellular ROS under AGE stimulation (intracellular ROS [3]): suppress the increase in ROS
- ROS production (intracellular ROS [4]; added before and after 0.2 mM hydrogen peroxide, 1-300 μg/mL): suppressed in a concentration-dependent manner
- ROS production (intracellular ROS [4]; treatment in advance before oxidative stress, compared with addition after): further suppressed
- mRNA expression of AGE receptor [5]: did not affect
- mRNA level of RAGE (RAGE): significantly increased
- Elastin production amount (Elastin; added after application of oxidative stress (H2O2 only 56% of Control)): could not be recovered
- Elastin production amount (Elastin; [8]): significant recovery
- concentration at which Elastin production amount was significantly higher than Control (Elastin; [8]): ≥ 100 µg/mL
